The record followed here is patent US11840686B2, “Modulation of prekallikrein (PKK) expression” (Ionis Pharmaceuticals, Inc., priority 2013, dated 2023).

In this series the test system is human PKK mRNA. The experiment in a line: Antisense inhibition of human PKK mRNA in HepaRG cells, 1,000 nM, MOE/deoxy/cEt oligonucleotides (Example 3). The class given is cell-based. The following applies: HepaRG cells, electroporation with 1,000 nM antisense oligonucleotide, PKK mRNA by RT-PCR (RTS3454), relative to untreated control cells. As to the method: Additional antisense oligonucleotides were designed targeting a PKK nucleic acid and were tested for their effects on PKK mRNA in vitro.
The chimeric antisense oligonucleotides in the tables below were designed as deoxy, MOE and cEt gapmers. The gapmers are 16 nucleosides in length wherein the nucleoside have either a MOE sugar modification, a cEt sugar modification, or a deoxy modification. The ‘Chemistry’ column describes the sugar modifications of each oligonucleotide. ‘k’ indicates an cEt sugar modification; the number indicates the number of deoxynucleosides; otherwise, indicates a deoxynucleoside; and ‘e’ indicates a 2′-O-methoxyethyl modification. The internucleoside linkages throughout each gapmer are phosphorothioate linkages. All cytosine residues throughout each oligonucleotide are 5-methylcytosines. “Start site” indicates the 5′-most nucleoside to which the gapmer is targeted in the human gene sequence. “Stop site” indicates the 3′-most nucleoside to which the gapmer is targeted in the human gene sequence.
Cultured HepaRG™ cells at a density of 20,000 cells per well were transfected using electroporation with 1,000 nM antisense oligonucleotide. After a treatment period of approximately 24 hours, RNA was isolated from the cells and PKK mRNA levels were measured by quantitative real-time PCR. Human primer probe set RTS3454 was used to measure mRNA levels. ISIS 531231 was also included in this assay. PKK mRNA levels were adjusted according to total RNA content, as measured by RIBOGREEN®. The antisense oligonucleotides were tested in a series of experiments that had similar culture conditions. Results are presented as percent inhibition of PKK, relative to untreated control cells.

The mark [1] stands for this setting: Table 20, approximately 24 hours.
Where [2] appears, read: Table 22 experiment, approx. 24 hours.

Strand notation (5' to 3'): a small letter for the sugar, then the base; units joined by * are phosphorothioate-linked, units joined directly phosphodiester-linked; [ ] holds rarer units or linkages, { } end groups; capitals alone tell only the bases. e = 2'-O-(2-methoxyethyl) (MOE); k = constrained ethyl (cEt); [5mC] = 5-methylcytosine; d = 2'-deoxy (DNA)

Take “547844 (antisense eG*e[5mC]*kA*d[5mC]*dT*dT*dA*dT*dT*dT*dG*dA*dT*kG*kA*e[5mC]) [compound 547844]”: the “% inhibition” value is on record as 13% under setting [1] and 76% under setting [2].
As for “547845 (antisense e[5mC]*eG*kA*dT*dG*dG*d[5mC]*dA*dA*dG*d[5mC]*dA*d[5mC]*kT*kT*eA) [compound 547845]”, the “% inhibition” value under setting [1] was 0% and the “% inhibition” value under setting [2] was 64%.
Turning to “547846 (antisense eT*e[5mC]*kG*dA*dT*dG*dG*d[5mC]*dA*dA*dG*d[5mC]*dA*k[5mC]*kT*eT) [compound 547846]”, the “% inhibition” value by setting is: under setting [1], 0%; under setting [2], 42%.
On to “547847 (antisense e[5mC]*eT*k[5mC]*dG*dA*dT*dG*dG*d[5mC]*dA*dA*dG*d[5mC]*kA*k[5mC]*eT) [compound 547847]”, for which the “% inhibition” value by setting is: under setting [1], 46%; under setting [2], 72%.
For “547848 (antisense eA*eT*kG*dT*d[5mC]*dT*d[5mC]*dG*dA*dT*dG*dG*d[5mC]*kA*kA*eG) [compound 547848]”, the “% inhibition” value is, setting by setting: under setting [1], 93%; under setting [2], 79%.
In the case of “547850 (antisense eA*eA*kA*dT*dG*dT*d[5mC]*dT*d[5mC]*dG*dA*dT*dG*kG*k[5mC]*eA) [compound 547850]”, the “% inhibition” value came to 51% under setting [1] and 80% under setting [2].
Taken in the same sequence, the figures for “547852 (antisense eA*eT*kA*dA*dA*dT*dG*dT*d[5mC]*dT*d[5mC]*dG*dA*kT*kG*eG) [compound 547852]” were 67% and 66%.
As for “547853 (antisense eT*eA*kT*dA*dA*dA*dT*dG*dT*d[5mC]*dT*d[5mC]*dG*kA*kT*eG) [compound 547853]”, the “% inhibition” value runs as follows: under setting [1], 0%; under setting [2], 30%.
Consider “547854 (antisense eA*eT*k[5mC]*dA*dA*d[5mC]*dT*d[5mC]*d[5mC]*dT*dT*dT*dA*kT*kA*eA) [compound 547854]”, for which the “% inhibition” value by setting is: under setting [1], 10%; under setting [2], 9%.
With “547855 (antisense eT*eA*kT*d[5mC]*dA*dA*d[5mC]*dT*d[5mC]*d[5mC]*dT*dT*dT*kA*kT*eA) [compound 547855]”, the “% inhibition” value was determined as 59% under setting [1] and 38% under setting [2].
For the substance “547856 (antisense e[5mC]*eA*kT*dA*dT*d[5mC]*dA*dA*d[5mC]*dT*d[5mC]*d[5mC]*dT*kT*kT*eA) [compound 547856]”, the “% inhibition” value by setting is: under setting [1], 93%; under setting [2], 51%.
As to “547858 (antisense e[5mC]*eT*k[5mC]*dT*d[5mC]*dA*dT*dA*dT*d[5mC]*dA*dA*d[5mC]*kT*k[5mC]*e[5mC]) [compound 547858]”, the “% inhibition” value is, setting by setting: under setting [1], 82%; under setting [2], 76%.
Consider “547860 (antisense eT*e[5mC]*k[5mC]*dT*d[5mC]*dT*d[5mC]*dA*dT*dA*dT*d[5mC]*dA*kA*k[5mC]*eT) [compound 547860]”, for which the “% inhibition” value runs as follows: under setting [1], 71%; under setting [2], 70%.
With “547863 (antisense eT*eG*kA*d[5mC]*dT*d[5mC]*d[5mC]*dT*d[5mC]*dT*d[5mC]*dA*dT*kA*kT*e[5mC]) [compound 547863]”, the “% inhibition” value under setting [1] came out at 73% and the “% inhibition” value under setting [2] was determined as 77%.
“547864 (antisense eT*eT*kG*dA*d[5mC]*dT*d[5mC]*d[5mC]*dT*d[5mC]*dT*d[5mC]*dA*kT*kA*eT) [compound 547864]”: the “% inhibition” value reads like this: under setting [1], 53%; under setting [2], 73%.
With “547865 (antisense eA*eA*kA*dA*dT*dT*dG*dA*d[5mC]*dT*d[5mC]*d[5mC]*dT*k[5mC]*kT*e[5mC]) [compound 547865]”, the “% inhibition” value runs as follows: under setting [1], 3%; under setting [2], 61%.
For “547866 (antisense eT*eT*kA*dA*dA*dA*dT*dT*dG*dA*d[5mC]*dT*d[5mC]*k[5mC]*kT*e[5mC]) [compound 547866]” the same measures were 46% and 40%.
